Experimental data reported in patent publication US6737383B1, “Herbicidal oxadiazolidines” (priority 1999, dated 2004).

What was measured:
cocklebur = assay: Test B pre/postemergence cocklebur; type: in vivo, Xanthium strumarium
In short: (§1)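 Test chemicals in a non-phytotoxic solvent mixture with surfactant were sprayed preemergence onto planted seeds and postemergence onto plants 2 to 18 cm tall (1- to 4-leaf stage). After twelve to sixteen days in a greenhouse, injury was visually rated against untreated controls from 0 (no effect) to 10 (complete control).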

soybean = assay: Test B pre/postemergence soybean; type: in vivo, Glycine max
In short: as §1

rape = assay: Test B pre/postemergence rape; type: in vivo, Brassica napus
In short: as §1

sugar beet = assay: Test B pre/postemergence sugar beet; type: in vivo, Beta vulgaris
In short: as §1

corn = assay: Test B pre/postemergence corn; type: in vivo, Zea mays
In short: as §1

wheat = assay: Test B pre/postemergence wheat; type: in vivo, Triticum aestivum
In short: as §1

morningglory = assay: Test B pre/postemergence morningglory; type: in vivo, Ipomoea hederacea
In short: as §1

bedstraw = assay: Test B pre/postemergence bedstraw; type: in vivo, Galium aparine
In short: as §1

purple nutsedge = assay: Test B pre/postemergence purple nutsedge; type: in vivo, Cyperus rotundus
In short: as §1

velvetleaf = assay: Test B pre/postemergence velvetleaf; type: in vivo, Abutilon theophrasti
In short: as §1

blackgrass = assay: Test B pre/postemergence blackgrass; type: in vivo, Alopecurus myosuroides
In short: as §1

crabgrass = assay: Test B pre/postemergence crabgrass; type: in vivo, Digitaria sanguinalis
In short: as §1

giant foxtail = assay: Test B pre/postemergence giant foxtail; type: in vivo, Setaria faberii
In short: as §1

surinam grass = assay: Test B pre/postemergence surinam grass; type: in vivo, Brachiaria decumbens
In short: as §1

pigweed = assay: Test B pre/postemergence pigweed; type: in vivo, Amaranthus retroflexus
In short: as §1

wild oat = assay: Test B pre/postemergence wild oat; type: in vivo, Avena fatua
In short: as §1

[1] = Postemergence, Rate 62 g/ha, scale of 0 to 10, 0 is no effect, 10 is complete control
[2] = Postemergence, Rate 125 g/ha, scale of 0 to 10 where 0 is no effect and 10 is complete control
[3] = Postemergence, Rate 500 g/ha, scale of 0 to 10 where 0 is no effect and 10 is complete control
[4] = Preemergence, Rate 62 g/ha, scale 0 to 10 (0 no effect, 10 complete control)
[5] = Preemergence, Rate 125 g/ha, scale of 0 to 10 where 0 is no effect and 10 is complete control
[6] = Preemergence, Rate 500 g/ha, scale of 0 to 10 where 0 is no effect and 10 is complete control
[7] = Rate 250 g/ha, Postemergence, scale of 0 to 10 where 0 is no effect and 10 is complete control
[8] = Preemergence, Rate 62 g/ha, scale of 0 to 10 where 0 is no effect and 10 is complete control
[9] = Preemergence, Rate 250 g/ha, scale 0 to 10 (0 no effect, 10 complete control)

In the case of `CCC=CCn1c(=O)on(C(=O)N(c2ccccc2)C(C)C)c1=O` [Compound 582], the “Cocklebur plant response rating” value (cocklebur; [1]) is reported as 0, the “Plant response rating, Cocklebur” value (cocklebur; [2]) is reported as 0 and the “Plant response rating, Cocklebur” value (cocklebur; [3]) is reported as 4. For the same compound, the “Cocklebur plant response rating” value (cocklebur; [4]) was 0, the “Cocklebur plant response rating” value (cocklebur; [5]) was 0 and the “Cocklebur plant response rating (0 to 10 scale)” value (cocklebur; Preemergence, Rate 250 g/ha) was 0. The “Cocklebur plant response rating” value (cocklebur; [6]) was 0, the “Plant response rating, Cocklebur” value (cocklebur; [7]) was 2 and the “Plant response rating, Soybean” value (soybean; [2]) was 3. For the same compound, the “Plant response rating, Soybean” value (soybean; [3]) was 3, the “Soybean plant response rating” value (soybean; [4]) was 0 and the “Soybean plant response rating” value (soybean; [5]) was 0. The “Soybean plant response rating (0 to 10 scale)” value (soybean; Preemergence, Rate 250 g/ha) was 0, the “Soybean plant response rating” value (soybean; [6]) was 0 and the “Plant response rating, Soybean” value (soybean; [7]) was 3. The “Rape plant response rating” value (rape; [1]) was 0, the “Plant response rating, Rape” value (rape; [2]) was 0 and the “Plant response rating, Rape” value (rape; [3]) was 3. For the same compound, the “Rape plant response rating” value (rape; [4]) was 0, the “Rape plant response rating” value (rape; [5]) was 0 and the “Rape plant response rating (0 to 10 scale)” value (rape; Preemergence, Rate 250 g/ha) was 0. The “Rape plant response rating” value (rape; [6]) was 3, the “Plant response rating, Rape” value (rape; [7]) was 0 and the “Plant response rating, Sugarbeets” value (sugar beet; [2]) was 0. The “Plant response rating, Sugarbeets” value (sugar beet; [3]) was 7, the “Sugarbeets plant response rating” value (sugar beet; [4]) was 0 and the “Sugarbeets plant response rating” value (sugar beet; [5]) was 0. For the same compound, the “Sugarbeets plant response rating (0 to 10 scale)” value (sugar beet; Preemergence, Rate 250 g/ha) was 0, the “Sugarbeets plant response rating” value (sugar beet; [6]) was 0 and the “Plant response rating, Sugarbeets” value (sugar beet; [7]) was 3. For the same compound, the “Corn plant response rating” value (corn; [1]) was 0, the “Plant response rating, Corn” value (corn; [2]) was 0 and the “Plant response rating, Corn” value (corn; [3]) was 0. For the same compound, the “Corn plant response rating” value (corn; [4]) was 0, the “Corn plant response rating” value (corn; [5]) was 0 and the “Corn plant response rating (0 to 10 scale)” value (corn; Preemergence, Rate 250 g/ha) was 0. The “Corn plant response rating” value (corn; [6]) was 0, the “Plant response rating, Corn” value (corn; [7]) was 0 and the “Plant response rating, Wheat” value (wheat; [2]) was 0. The “Plant response rating, Wheat” value (wheat; [3]) was 0, the “Wheat plant response rating” value (wheat; [4]) was 0 and the “Wheat plant response rating” value (wheat; [5]) was 0. The “Wheat plant response rating (0 to 10 scale)” value (wheat; Preemergence, Rate 250 g/ha) was 0, the “Wheat plant response rating” value (wheat; [6]) was 0 and the “Plant response rating, Wheat” value (wheat; [7]) was 0. For the same compound, the “Morningglory plant response rating” value (morningglory; [1]) was 9, the “Plant response rating, Morningglory” value (morningglory; [2]) was 10 and the “Plant response rating, Morningglory” value (morningglory; [3]) was 10. For the same compound, the “Morningglory plant response rating” value (morningglory; [4]) was 0, the “Morningglory plant response rating” value (morningglory; [5]) was 0 and the “Morningglory plant response rating (0 to 10 scale)” value (morningglory; Preemergence, Rate 250 g/ha) was 0. For the same compound, the “Morningglory plant response rating” value (morningglory; [6]) was 2, the “Plant response rating, Morningglory” value (morningglory; [7]) was 10 and the “Plant response rating, Bedstraw” value (bedstraw; [2]) was 7. For the same compound, the “Bedstraw plant response rating” value (bedstraw; [4]) was 0, the “Bedstraw plant response rating” value (bedstraw; [5]) was 0 and the “Bedstraw plant response rating (0 to 10 scale)” value (bedstraw; Preemergence, Rate 250 g/ha) was 6. For the same compound, the “Bedstraw plant response rating” value (bedstraw; [6]) was 6, the “Plant response rating, Bedstraw” value (bedstraw; [7]) was 9 and the “Nutsedge plant response rating” value (purple nutsedge; [1]) was 0. The “Plant response rating, Nutsedge” value (purple nutsedge; [2]) was 0, the “Plant response rating, Nutsedge” value (purple nutsedge; [3]) was 0 and the “Nutsedge plant response rating” value (purple nutsedge; [4]) was 0. For the same compound, the “Nutsedge plant response rating” value (purple nutsedge; [5]) was 0, the “Nutsedge plant response rating (0 to 10 scale)” value (purple nutsedge; Preemergence, Rate 250 g/ha) was 0 and the “Nutsedge plant response rating” value (purple nutsedge; [6]) was 0. For the same compound, the “Plant response rating, Velvetleaf” value (velvetleaf; [2]) was 0, the “Plant response rating, Velvetleaf” value (velvetleaf; [3]) was 0 and the “Velvetleaf plant response rating” value (velvetleaf; [4]) was 0. For the same compound, the “Velvetleaf plant response rating” value (velvetleaf; [5]) was 0, the “Velvetleaf plant response rating (0 to 10 scale)” value (velvetleaf; Preemergence, Rate 250 g/ha) was 4 and the “Velvetleaf plant response rating” value (velvetleaf; [6]) was 4. The “Plant response rating, Velvetleaf” value (velvetleaf; [7]) was 0, the “Blackgrass plant response rating” value (blackgrass; [1]) was 3 and the “Plant response rating, Blackgrass” value (blackgrass; [3]) was 7. The “Blackgrass plant response rating” value (blackgrass; [4]) was 0, the “Blackgrass plant response rating” value (blackgrass; [5]) was 0 and the “Blackgrass plant response rating (0 to 10 scale)” value (blackgrass; Preemergence, Rate 250 g/ha) was 0. The “Blackgrass plant response rating” value (blackgrass; [6]) was 0, the “Plant response rating, Blackgrass” value (blackgrass; [7]) was 3 and the “Crabgrass plant response rating” value (crabgrass; [1]) was 0. The “Plant response rating, Crabgrass” value (crabgrass; [2]) was 0, the “Plant response rating, Crabgrass” value (crabgrass; [3]) was 3 and the “Crabgrass plant response rating” value (crabgrass; [4]) was 0. For the same compound, the “Crabgrass plant response rating” value (crabgrass; [5]) was 0, the “Crabgrass plant response rating (0 to 10 scale)” value (crabgrass; Preemergence, Rate 250 g/ha) was 0 and the “Crabgrass plant response rating” value (crabgrass; [6]) was 7. The “Plant response rating, Crabgrass” value (crabgrass; [7]) was 3, the “Giant foxtail plant response rating” value (giant foxtail; [1]) was 3 and the “Plant response rating, Giant foxtail” value (giant foxtail; [2]) was 4. For the same compound, the “Plant response rating, Giant foxtail” value (giant foxtail; [3]) was 7, the “Giant foxtail plant response rating” value (giant foxtail; [4]) was 0 and the “Giant foxtail plant response rating” value (giant foxtail; [5]) was 5. For the same compound, the “Giant foxtail plant response rating (0 to 10 scale)” value (giant foxtail; Preemergence, Rate 250 g/ha) was 8, the “Giant foxtail plant response rating” value (giant foxtail; [6]) was 8 and the “Plant response rating, Giant foxtail” value (giant foxtail; [7]) was 9. For the same compound, the “B. signalgrass plant response rating” value (surinam grass; [1]) was 0, the “Plant response rating, B. signalgrass” value (surinam grass; [2]) was 0 and the “Plant response rating, B. signalgrass” value (surinam grass; [3]) was 3. The “B. signalgrass plant response rating” value (surinam grass; [4]) was 0, the “B. signalgrass plant response rating” value (surinam grass; [5]) was 0 and the “B. signalgrass plant response rating (0 to 10 scale, 0 is no effect, 10 is complete control)” value (surinam grass; Preemergence, Rate 250 g/ha) was 2. For the same compound, the “B. signalgrass plant response rating” value (surinam grass; [6]) was 4, the “Plant response rating, B. signalgrass” value (surinam grass; [7]) was 0 and the “Plant response rating, Redroot pigweed” value (pigweed; [2]) was 0. The “Plant response rating, Redroot pigweed” value (pigweed; [3]) was 7, the “Redroot pigweed plant response rating” value (pigweed; [4]) was 0 and the “Redroot pigweed plant response rating” value (pigweed; [5]) was 0. The “Redroot pigweed plant response rating (0 to 10 scale)” value (pigweed; Preemergence, Rate 250 g/ha) was 4, the “Redroot pigweed plant response rating” value (pigweed; [6]) was 9 and the “Plant response rating, Redroot pigweed” value (pigweed; [7]) was 7. The “Plant response rating, Wild oats” value (wild oat; [2]) was 0, the “Plant response rating, Wild oats” value (wild oat; [3]) was 3 and the “Wild oats plant response rating” value (wild oat; [4]) was 0. The “Wild oats plant response rating” value (wild oat; [5]) was 0, the “Wild oats plant response rating (0 to 10 scale)” value (wild oat; Preemergence, Rate 250 g/ha) was 0 and the “Wild oats plant response rating” value (wild oat; [6]) was 0. For the same compound, the “Plant response rating, Wild oats” value (wild oat; [7]) was 0.
`CC(C)N(C(=O)n1oc(=O)n(C(C)C(=S)N(C)C)c1=O)c1ccccc1` (stereo not drawn) [Compound 704] was tested, and the “Cocklebur plant response rating” value (cocklebur; [8]) was 0, the “Plant response rating, Cocklebur” value (cocklebur; [5]) was 0 and the “Plant response rating, Cocklebur” value (cocklebur; [9]) was 0. For the same compound, the “Plant response rating, Cocklebur” value (cocklebur; [6]) was 0, the “Soybean plant response rating” value (soybean; [8]) was 0 and the “Plant response rating, Soybean” value (soybean; [5]) was 0. The “Rape plant response rating” value (rape; [8]) was 0, the “Plant response rating, Rape” value (rape; [5]) was 0 and the “Sugarbeets plant response rating” value (sugar beet; [8]) was 0. The “Plant response rating, Sugarbeets” value (sugar beet; [5]) was 3, the “Corn plant response rating” value (corn; [8]) was 0 and the “Plant response rating, Corn” value (corn; [5]) was 0. For the same compound, the “Plant response rating, Corn” value (corn; [9]) was 0, the “Wheat plant response rating” value (wheat; [8]) was 0 and the “Plant response rating, Wheat” value (wheat; [5]) was 0. For the same compound, the “Morningglory plant response rating” value (morningglory; [8]) was 0, the “Plant response rating, Morningglory” value (morningglory; [5]) was 0 and the “Bedstraw plant response rating” value (bedstraw; [8]) was 0. For the same compound, the “Plant response rating, Bedstraw” value (bedstraw; [5]) was 0, the “Plant response rating, Bedstraw” value (bedstraw; [9]) was 0 and the “Nutsedge plant response rating” value (purple nutsedge; [8]) was 0. The “Plant response rating, Nutsedge” value (purple nutsedge; [5]) was 0, the “Velvetleaf plant response rating” value (velvetleaf; [8]) was 0 and the “Plant response rating, Velvetleaf” value (velvetleaf; [5]) was 0. The “Blackgrass plant response rating” value (blackgrass; [8]) was 2, the “Plant response rating, Blackgrass” value (blackgrass; [5]) was 6 and the “Plant response rating, Blackgrass” value (blackgrass; [9]) was 10. For the same compound, the “Plant response rating, Blackgrass” value (blackgrass; [6]) was 10, the “Crabgrass plant response rating” value (crabgrass; [8]) was 5 and the “Plant response rating, Crabgrass” value (crabgrass; [5]) was 8. For the same compound, the “Plant response rating, Crabgrass” value (crabgrass; [9]) was 8, the “Giant foxtail plant response rating” value (giant foxtail; [8]) was 4 and the “Plant response rating, Giant foxtail” value (giant foxtail; [5]) was 7. For the same compound, the “B. signalgrass plant response rating” value (surinam grass; [8]) was 2, the “Plant response rating, B. signalgrass” value (surinam grass; [5]) was 5 and the “Plant response rating, B. signalgrass” value (surinam grass; [9]) was 8. For the same compound, the “Plant response rating, B. signalgrass” value (surinam grass; [6]) was 9, the “Redroot pigweed plant response rating” value (pigweed; [8]) was 0 and the “Plant response rating, Redroot pigweed” value (pigweed; [5]) was 5. For the same compound, the “Wild oats plant response rating” value (wild oat; [8]) was 0 and the “Plant response rating, Wild oats” value (wild oat; [5]) was 0.
